# Patent US20220323454A1, “PHENOTHIAZINES AND THEIR DERIVATIVES FOR USE AS A MEDICAMENT” (Guangzhou Virotech Pharmaceutical Co., Ltd., priority 2019, published 2022)
# Assays:
# B16-OVA cells = experiment: CTL killing of IFN-γ-treated B16-OVA melanoma cells (microscope); type: cell-based, mouse
# Experimental: (3) Melanoma cells B16-OVA (B16 cells expressing OVA gene) were treated with 10 μg/mL IFN-γ for 24 hours, and then mixed with CTL cells at a ratio of 1:5 and co-cultured for 4 hours. Cells were treated with 1 μM MTC. B16-OVA cells treated with DMSO or MTC only (without IFN-γ treatment) were used as control. The apoptosis of B16-OVA was observed by microscope, and then the killing ability of CTL cells to target cells was assessed.
# (§1) (4) The B16-OVA group received no treatment, and the medium was replaced with water in the Water group. The other groups were treated with 10 μg/mL IFNγ. After 24 hours, except for the B16-OVA group, each group was co-cultured with CTL cells at a ratio of 1:5 for 4 hours, and treated with MTC […], LMT (1 μM) or anti-PD1 (PD-1 antibody, 10 μg/mL, Nivolumab, BMS). The death of B16-OVA in each group was observed by microscope, and then the killing ability of CTL cells to target cells was assessed. […] The IFN-γ+MTC group and the IFN-γ+LMT group were treated with 10 μg/mL IFN-γ for 24 hours. The cells were then mixed with CTL cells at a ratio of 1:5, co-cultured for 4 hours and treated with MTC (1 μM) or LMT (1 μM). The MTC and LMT groups were treated with MTC (10 μM) or LMT (10 μM) only. The killing ability against target cells was observed.
# B16-WT cells = experiment: Killing of B16-WT melanoma cells, with or without CTL cells; type: cell-based, mouse; settings: FIG. 4E
# Experimental: as §1
# [1] = tested on: Jurkat-PD-1-NFAT-LUC cells; experiment: NFAT-luciferase activity in Jurkat-PD-1-NFAT-LUC cells co-cultured with Raji-PD-L1 cells; type: cell-based, human; settings: 4.86 μM MTC or LMT added with Raji-PD-L1 cells, 6 h co-culture; FIG. 1E
# Experimental: (§2) (1) Jurkat cells were used to construct a stable cell line expressing PD-1. The pCAGin-PD-1 plasmid was electroporated into Jurkat cells, which were then screened with 900 μg/mL G418 antibiotic and flow-sorted for single clones. Jurkat-PD-1 cells were then electroporated into a DNA fragment that controls the luciferase gene through the NFAT-binding site (referred to as NFAT-LUC). A single clone was then flow-sorted and named clone 5. Using this cell, the expression level of IL-2 can be measured by the activity of luciferase. Raji cells stably expressing PD-L1 were constructed, and the pCDNA-PD-L1 plasmid was electroporated into the Raji cells, followed by screening with 2 μg/mL puromycin, and then flow-sorted single clones and named clone 1.
# (4) A 96-well plate was coated with 10 μg/mL CD3 antibody/10 μg/mL CD28 antibody overnight at 4° C., and excess antibody then washed off with PBS. Raji cells or Raji-PD-L1 cells were co-cultured with Jurkat-PD-1-NFAT-LUC cells at a ratio of 1:1, or to a mixture of Raji-PD-L1 cells and Jurkat-PD-1-NFAT-LUC cells at a ratio of 1:1 was added 4.86 μM MTC or LMT. Luciferase substrate was added after 6h co-culture and the luciferase activity was measured by a microplate reader.
# EL4-OVA-mPDL1 cells = experiment: EL4-OVA-mPDL1 subcutaneous transplanted tumor in Rag1−/− mice given CTL cells; type: in vivo, mouse; settings: CTL cells by tail vein, MTC 40 mg/kg/day intragastric, PD-1 antibody 10 mg/kg/2 days intraperitoneal, vs CTL cell-only group, FIGS. 5B, C, D
# Experimental: (1) Lymphoma cells overexpressing chicken ovalbumin OVA and mouse PD-L1, namely EL4-OVA-mPDL1 cells, were resuspended in BD Matrigel, in which, for one side of one mouse, 2×10^6 cells were resuspended in 100 μl BD Matrigel.
# (2) The mixture of cells and Matrigel was inoculated into the left and right flanks of Rag1−/− mice subcutaneously, each at a dosage of 100 μl.
# (3) When the tumor was fixed about 5 days after inoculation, activated OT-1 T cells (i.e., 2×10^6 CTL cells/mouse) were injected through the tail vein, and the mice were divided into 3 groups, namely the CTL cell group, the CTL cell +10 mg/kg/2 days PD-1 antibody group, and the CTL cell +40 mg/kg/day MTC group.
# (4) The length and width of the transplanted tumor of each group of mice were measured from the day of tail vein injection of CTL cells, and every other day, and the tumor volume was calculated as length×width^2/2 (FIG. 5A).
# [2] = tested on: Jurkat-PD-1-NFAT-LUC cells; experiment: IL-2 secretion by Jurkat-PD-1-NFAT-LUC cells co-cultured with Raji-PD-L1 cells (ELISA); type: cell-based, human; settings: Raji-PD-L1 : Jurkat-PD-1-NFAT-LUC 1:1, CD3/CD28 antibody coated plate, 6 hours; 1 μM MTC or 10 μg/mL PD1 antibody; FIG. 1D
# Experimental: as §2
# (3) A 96-well plate was coated with 10 μg/mL CD3 antibody/10 μg/mL CD28 antibody overnight at 4° C. and excess antibody was washed off with PBS. Raji cells or Raji-PD-L1 cells were co-cultured with Jurkat-PD-1-NFAT-LUC cells at a ratio of 1:1, or to a mixture of Raji-PD-L1 cells and Jurkat-PD-1-NFAT-LUC cells at a ratio of 1:1 was added 1 μM MTC or 10 μg/mL PD1 antibody for co-culture; after 6 hours of co-culture, the secretion of IL-2 in the supernatant was measured by ELISA.
Compound,"killing effects of CTL cells to B16-OVA cells (B16-OVA cells; B16-OVA treated with 10 μg/mL IFNγ 24 hours, B16-OVA : CTL 1:5, 4 hours, MTC (1 µM), LMT (1 μM), FIGS. 4C and 4D)","combined killing effect with CTL cells on B16-OVA compared with the anti-PD-1 group (B16-OVA cells; MTC (1 µM) or LMT (1 μM) vs anti-PD1 10 μg/mL, FIG. 4D)","killing effect on B16-WT cells, combination with CTL cells (B16-WT cells; IFN-γ 10 μg/mL 24 hours, B16-WT : CTL 1:5, 4 hours, MTC (1 μM) or LMT (1 μM))","killing effect on B16-WT cells, compound only (B16-WT cells; MTC (10 μM) or LMT (10 μM) only)",luciferase activity [1],tumor growth (tumor volume and tumor weight) (EL4-OVA-mPDL1 cells),secretion of IL-2 in the supernatant [2]
"CN(C)c1ccc2c(c1)Sc1cc(N(C)C)ccc1N2 [LMT, N3,N3,N7,N7-tetramethyl-10H-phenothiazine-3,7-diammonium dimesylate]",significantly enhanced,significantly stronger than that of the anti-PD-1 group,no killing effect,no killing effect,increased dramatically,,
"PD-1 antibody: anti-PD-1 antibody (Nivolumab, Bristol-Myers Squibb) used as comparator",,,,,,inhibited,sharply enhanced
